Experimental findings from US12178800B2, “Sulforaphane-melatonin-like compound” (priority 2018, dated 2024) are described below.

One data set has as its system nuclear factor (NF)-κB. The experiment in a line: NF-κB immunohistochemistry of irradiated skin. The data set is classed as in vivo, Gottingen mini-pigs. On the procedure: (§1) After incubation in normal horse serum for 60 min to prevent nonspecific binding, the skin sections were incubated with mouse anti-nuclear factor (NF)-κB (sc-109, 1:200; Santa Cruz Biotechnology, Santa Cruz, CA, USA) and mouse anti-COX-2 (18-7379, 1:200; Zymed, USA) in phosphate buffered saline-Tween (PBS-T overnight at 4° C. The sections were subsequently incubated with biotinylated horse anti-mouse IgG (VECTASTAIN Elite ABC Kit; Vector Laboratories, USA). The immunoreactivity was assessed using the avidin-biotin peroxidase complex (VECTASTAIN Elite ABC Kit; Vector Laboratories). The peroxidase reaction was developed using a diaminobenzidine substrate kit (DAB Substrate Kit SK-4100; Vector Laboratories). As a control, the primary antibodies were omitted from the immunohistochemical analysis of a few test sections in each experiment. The sections were then counterstained with hematoxylin before being mounted.

The next data set concerns mouse tongues. The experiment in a line: X-ray-induced oral mucositis in mice: oral mucositis score. The data set is classed as in vivo, ICR mice. How it is done: (§2) In a second example for illustrating embodiments of the present invention, six-week-old ICR mice (30-40 g) obtained from Institute of Animal Breeding and Genetics, University of Gottingen, Germany were used. The animals were housed in a room maintained at 22±2° C. under a 12-h light-dark cycle with lights on at 7:00 a.m. Mice were fed a standard rodent diet and had free access to water. In addition, no antibiotic supplements were used. All animal experiments were performed in compliance to The German Animal Welfare Act. The mice (n=20 per group) were anesthetized (pentobarbital sodium, 50 mg/kg body weight, i.p.) and then irradiated. Mice had to be irradiated only at the tip of the tongue, so the rest of the body was shielded with a lead device (thickness, 0.5 mm). The tongue was fixed to the outer surface of the lead device using adhesive tape and irradiated with a single radiation dose of 20 Gy. Radiation was generated using a 150 kV potential (20 mA) X-ray source at a focal distance of 350 mm and beam-hardened by a 1.0-mm aluminum filtration system (MBR-1520R-3; Hitachi, Tokyo, Japan). The dose rate was 5.1 Gy/min. The 6OHM-6-HITC compound was dissolved in a small volume of 1 M NaOH solution. The pH was adjusted to 7 with 1 M HCL. The concentration was adjusted to 3 mg/mL or 15 mg/mL in 0.9% (physiologic) saline solution. The body weight was recorded and the tongues were observed daily after irradiation. 6OHM-6-HITC was injected via the intraperitoneal route 30 min before irradiation. The control group was irradiated but without administering the 6OHM-6-HITC compound.
The scoring of oral mucositis was based on a modification of the method of Sonis et al. To assess the severity of oral mucositis, mice were anesthetized with isoflurane every day. The oral mucositis score was: 0=normal; 1=partial hyperemia, erythema and swelling; 2=overall hyperemia, erythema and swelling; 3=epidermolysis, hyperemia and erythema; 4=extensive epidermolysis and bleeding; 5=bleeding and abscesses. Myeloperoxidase (MPO) activity is a marker for neutrophils in inflamed tissue. MPO activity was measured in mouse tongues using a modification of the method of Chen et al. After mice had been killed by cervical dislocation 12 days after irradiation, tongue samples (n=10 per group) were removed and stored at −70° C. until required for assay. […] MPO activity was measured using a Microplate Reader (NJ-2300; Biotec, Tokyo, Japan) at 450 nm. MPO activity was calculated by measuring the slope of absorbance calibrated using MPO standards (Wako Biochemicals) and expressed as MPO/g tongue. […] TBARS levels were measured using the Microplate Reader (Biotec) at 540 nm. TBARS levels were calculated by measuring the slope of absorbance calibrated using TBARS standards and expressed as TBARS/g tongue. […]

The subject of a further data set is biopsy wound. The experiment in a line: Healing of biopsy wounds in irradiated skin. It counts as in vivo, Gottingen mini-pigs. The conditions noted are these: biopsy wound 3 days after irradiation.
The subject of another data set is ICR mice. The experiment in a line: X-ray-induced oral mucositis in mice: survival and behaviour. The data set is classed as in vivo. How it is done: as §2, with “The concentration was adjusted to 3 mg/mL or 15 mg/mL in 0.9% (physiologic) saline solution.” left out, “6OHM-6-HITC was injected via the intraperitoneal route 30 min before irradiation. The control group was irradiated but without administering the 6OHM-6-HITC compound.” left out

The subject of the next data set is cyclooxygenase-2 (COX-2). Briefly: COX-2 immunohistochemistry of irradiated skin. It counts as in vivo, Gottingen mini-pigs. The conditions noted are these: 7, 21 and 35 days after irradiation. On the procedure: as §1

Consider `COc1cc2c(CCCCN=C=S)c[nH]c2cc1O` [6OHM-6-HITC], for which, in the data set on nuclear factor (NF)-κB (7, 21 and 35 days after irradiation), the “NF-κB expression in irradiated skin vs. vehicle-treated irradiated skin” value is “lower”. In addition, in the data set on nuclear factor (NF)-κB (irradiated skin, treated), the “nuclear NF-κB expression” value was “rapidly decreased”. For the same compound, the “total oral mucositis score between day-0 and day-12 vs. control group” value with mouse tongues (30 mg/kg i.p.) and in the data set with mouse tongues (300 mg/kg i.p.) was “significantly lower” throughout. Moreover, the “oral mucositis score vs. control group” value is “significantly lower” in the data set with mouse tongues (300 mg/kg i.p., day-10) and “significantly lower” with mouse tongues (300 mg/kg i.p., day-12). The “healing of the biopsy wound” value in the data set on biopsy wound is given as “attenuated the radiation-induced delayed healing”. Besides, in the data set on ICR mice (300 mg/kg i.p.), the behavioral disorders entry is recorded as “not observed”. Also, the “survival after X-ray irradiation” value with ICR mice (30 and 300 mg/kg i.p. 30 min before 20 Gy irradiation of the tongue) is on record as “significant difference in survival was not found”. For the same compound, the “COX-2 expression in the irradiated skin vs. vehicle-treated skin” value in the data set on cyclooxygenase-2 (COX-2) is on record as “lower”.
